Results on 20 molecules are retold here after patent publication US10947210B2 (priority 2015, dated 2021).

SMILES strings stand for the structures.

The target of the assay is HCV RNA-dependent RNA polymerase (NS5B) (Hepatitis C virus genotype 1b (isolate BK) (HCV), UniProt P26663). As to the kind of experiment: RNA-Dependent RNA HCV NS5B (polymerase) Assay and IC50 Determination. In kind it is biochemical. As to conditions: purified HCV NS5B polymerase, polyA:U16 substrate, 32P-UTP incorporation; read-out: IC50. The procedure: RNA-Dependent RNA HCV NS5B (polymerase) Assay and IC50 Determination.
Sequence of HCV RNA-dependent RNA polymerase (NS5B) (P26663 2420-3010): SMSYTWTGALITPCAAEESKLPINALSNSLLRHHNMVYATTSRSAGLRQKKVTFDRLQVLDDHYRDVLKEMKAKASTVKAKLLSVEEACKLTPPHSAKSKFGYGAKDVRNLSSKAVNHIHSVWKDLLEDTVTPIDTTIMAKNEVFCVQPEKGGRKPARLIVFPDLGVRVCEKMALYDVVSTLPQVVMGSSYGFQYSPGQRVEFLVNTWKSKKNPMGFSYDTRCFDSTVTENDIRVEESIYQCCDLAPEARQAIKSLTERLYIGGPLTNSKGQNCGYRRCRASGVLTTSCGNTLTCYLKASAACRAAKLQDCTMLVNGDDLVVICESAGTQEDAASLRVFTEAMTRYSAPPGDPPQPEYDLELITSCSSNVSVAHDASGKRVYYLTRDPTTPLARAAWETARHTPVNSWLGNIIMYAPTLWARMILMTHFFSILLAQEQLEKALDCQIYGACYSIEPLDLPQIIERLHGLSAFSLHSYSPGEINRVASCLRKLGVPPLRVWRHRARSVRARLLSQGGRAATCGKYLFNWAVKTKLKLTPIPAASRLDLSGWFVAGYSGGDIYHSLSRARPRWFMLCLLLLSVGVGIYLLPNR
The reaction mixtures consisted of 50 mM Hepes-KOH, pH 7.5, 5 mM MgCl2, 5 mM DTT, 2% glycerol, 0.01% Triton® X-100, 0.5 uM polyA:U16 substrate, purified HCV RNA-dependent RNA polymerase, 10 μM UTP, and ^32P-UTP (Perkin Elmer). The reaction mixtures incubated at 30° C. for 60 minutes, and then filtered through Zeta probe membrane (BioRad). The filter was washed with 5×SSC (75 mM sodium citrate, pH 7 and 750 mM NaCl), and the radiolabeled RNA products were quantitated by microbeta (Perkin Elmer). For IC50 determination, different concentrations of inhibitors were added to the polymerase reaction mixtures, and incubated at 37° C. for 60 minutes. IC50 values were determined using GraFit (Erithaus software).
Table 1 presents IC50 data obtained using the biochemical assay to test representative compounds. Data are presented as follows: “+++” means <0.1 μM; “++” means ≥0.1 μM but <1.0 μM; “+” means ≥1.0 μM.
The IC50 is the concentration at which inhibition is half-maximal. On to `CNC(=O)c1c(-c2ccc(F)cc2)oc2cc(N(CCOCCOCCOCc3cccc(C(C)=O)c3)S(C)(=O)=O)c(C3CC3)cc12` [Compound 02-8B, 6-[(2-{2-[2-(3-Acetyl-benzyloxy)-ethoxy]-ethoxy}-ethyl)-methanesulfonyl-amino]-5-cyclopropyl-2-(4-fluoro-phenyl)-benzofuran-3-carboxylic Acid Methylamide], for which the IC50 was above 1000 nM.

For `CNC(=O)c1c(-c2ccc(F)cc2)oc2cc(N(CCOCCOCCOCCOCCOCc3cccc(C(C)=O)c3)S(C)(=O)=O)c(C3CC3)cc12` [Compound 02-8D, 6-({2-[2-(2-{2-[2-(3-Acetyl-benzyloxy)-ethoxy]-ethoxy}-ethoxy)-ethoxy]-ethyl}-methanesulfonyl-amino)-5-cyclopropyl-2-(4-fluoro-phenyl)-benzofuran-3-carboxylic Acid Methylamide], the IC50 was above 1000 nM. As for `CNC(=O)c1c(-c2ccc(F)cc2)oc2cc(N(CCOCCOCCOCCOCCOCCOCc3cccc(C(C)=O)c3)S(C)(=O)=O)c(C3CC3)cc12` [Compound 02-8E, 6-[(2-{2-[2-(2-{2-[2-(3-Acetyl-benzyloxy)-ethoxy]-ethoxy}-ethoxy)-ethoxy]-ethoxy}-ethyl)-methanesulfonyl-amino]-5-cyclopropyl-2-(4-fluoro-phenyl)-benzofuran-3-carboxylic Acid Methylamide], the half-inhibitory concentration (IC50) was above 1000 nM. The same measure for `CNC(=O)c1c(-c2ccc(F)cc2)oc2cc(N(CCOCCOCc3ccc(C(C)=O)cc3)S(C)(=O)=O)c(C3CC3)cc12` [Compound 02-8F, 6-({2-[2-(4-Acetyl-benzyloxy)-ethoxy]-ethyl}-methanesulfonyl-amino)-5-cyclopropyl-2-(4-fluoro-phenyl)-benzofuran-3-carboxylic Acid Methylamide]: above 1000 nM. As for `CNC(=O)c1c(-c2ccc(F)cc2)oc2cc(N(CCOCCOCCOCCOCc3ccc(C(C)=O)cc3)S(C)(=O)=O)c(C3CC3)cc12` [Compound 02-8H, 6-{[2-(2-{2-[2-(4-Acetyl-benzyloxy)-ethoxy]-ethoxy}-ethoxy)-ethyl]-methanesulfonyl-amino}-5-cyclopropyl-2-(4-fluoro-phenyl)-benzofuran-3-carboxylic Acid Methylamide], the IC50 is above 1000 nM. Take `CNC(=O)c1c(-c2ccc(F)cc2)oc2cc(N(CCOCCOCCOCCOCCOCc3ccc(C(C)=O)cc3)S(C)(=O)=O)c(C3CC3)cc12` [Compound 02-8I, 6-({2-[2-(2-{2-[2-(4-Acetyl-benzyloxy)-ethoxy]-ethoxy}-ethoxy)-ethoxy]-ethyl}-methanesulfonyl-amino)-5-cyclopropyl-2-(4-fluoro-phenyl)-benzofuran-3-carboxylic Acid Methylamide]: the IC50 was above 1000 nM. The value for `CCOC(=O)/C(O)=C/C(=O)c1cccc(COCCOCCOCCOCCN(c2cc3oc(-c4ccc(F)cc4)c(C(=O)NC)c3cc2C2CC2)S(C)(=O)=O)c1` [Compound 02-9C, 4-[3-(2-{2-[2-(2-{[5-Cyclopropyl-2-(4-fluoro-phenyl)-3-methylcarbamoyl-benzofuran-6-yl]-methanesulfonyl-amino}-ethoxy)-ethoxy]-ethoxy}-ethoxymethyl)-phenyl]-2-hydroxy-4-oxo-but-2-enoic Acid Ethyl Ester] was above 1000 nM; that for `CCOC(=O)/C(O)=C/C(=O)c1ccc(COCCOCCOCCOCCN(c2cc3oc(-c4ccc(F)cc4)c(C(=O)NC)c3cc2C2CC2)S(C)(=O)=O)cc1` [Compound 02-9H, 4-[4-(2-{2-[2-(2-{[5-Cyclopropyl-2-(4-fluoro-phenyl)-3-methylcarbamoyl-benzofuran-6-yl]-methanesulfonyl-amino}-ethoxy)-ethoxy]-ethoxy}-ethoxymethyl)-phenyl]-2-hydroxy-4-oxo-but-2-enoic Acid Ethyl Ester] was above 1000 nM; that for `CNC(=O)c1c(-c2ccc(F)cc2)oc2cc(N(CCOCCOCCOCc3cccc(C(=O)/C=C(\O)C(=O)O)c3)S(C)(=O)=O)c(C3CC3)cc12` [Compound 02-10B, 4-(3-{2-[2-(2-{[5-Cyclopropyl-2-(4-fluoro-phenyl)-3-methylcarbamoyl-benzofuran-6-yl]-methanesulfonyl-amino}-ethoxy)-ethoxy]-ethoxymethyl}-phenyl)-2-hydroxy-4-oxo-but-2-enoic Acid] was above 1000 nM. As for `CNC(=O)c1c(-c2ccc(F)cc2)oc2cc(N(CCOCCOCCOCCOCc3cccc(C(=O)/C=C(\O)C(=O)O)c3)S(C)(=O)=O)c(C3CC3)cc12` [Compound 02-10C, 4-[3-(2-{2-[2-(2-{[5-Cyclopropyl-2-(4-fluoro-phenyl)-3-methylcarbamoyl-benzofuran-6-yl]-methanesulfonyl-amino}-ethoxy)-ethoxy]-ethoxy}-ethoxymethyl)-phenyl]-2-hydroxy-4-oxo-but-2-enoic Acid], the IC50 was 100 to 1000 nM.

As for `CNC(=O)c1c(-c2ccc(F)cc2)oc2cc(N(CCOCCOCCOCc3ccc(C(=O)/C=C(\O)C(=O)O)cc3)S(C)(=O)=O)c(C3CC3)cc12` [Compound 02-10G, 4-(4-{2-[2-(2-{[5-Cyclopropyl-2-(4-fluoro-phenyl)-3-methylcarbamoyl-benzofuran-6-yl]-methanesulfonyl-amino}-ethoxy)-ethoxy]-ethoxymethyl}-phenyl)-2-hydroxy-4-oxo-but-2-enoic Acid], the IC50 is above 1000 nM. The value for `CNC(=O)c1c(-c2ccc(F)cc2)oc2cc(N(CCOCCOCCOCCOCc3ccc(C(=O)/C=C(\O)C(=O)O)cc3)S(C)(=O)=O)c(C3CC3)cc12` [Compound 02-10H, 4-[4-(2-{2-[2-(2-{[5-Cyclopropyl-2-(4-fluoro-phenyl)-3-methylcarbamoyl-benzofuran-6-yl]-methanesulfonyl-amino}-ethoxy)-ethoxy]-ethoxy}-ethoxymethyl)-phenyl]-2-hydroxy-4-oxo-but-2-enoic Acid] was above 1000 nM; that for `CNC(=O)c1c(-c2ccc(F)cc2)oc2cc(N(CCOCCOCCOCCOCCOCc3ccc(C(=O)/C=C(\O)C(=O)O)cc3)S(C)(=O)=O)c(C3CC3)cc12` [Compound 02-10I, 4-{4-[2-(2-{2-[2-(2-{[5-Cyclopropyl-2-(4-fluoro-phenyl)-3-methylcarbamoyl-benzofuran-6-yl]-methanesulfonyl-amino}-ethoxy)-ethoxy]-ethoxy}-ethoxy)-ethoxymethyl]-phenyl}-2-hydroxy-4-oxo-but-2-enoic Acid] was above 1000 nM; that for `CNC(=O)c1c(-c2ccc(F)cc2)oc2cc(N(CCOCCOCCOCCOCCOCCOCc3ccc(C(=O)/C=C(\O)C(=O)O)cc3)S(C)(=O)=O)c(C3CC3)cc12` [Compound 02-10J, 4-(4-{2-[2-(2-{2-[2-(2-{[5-Cyclopropyl-2-(4-fluoro-phenyl)-3-methylcarbamoyl-benzofuran-6-yl]-methanesulfonyl-amino}-ethoxy)-ethoxy]-ethoxy}-ethoxy)-ethoxy]-ethoxymethyl}-phenyl)-2-hydroxy-4-oxo-but-2-enoic Acid] was above 1000 nM. The same measure for `CNC(=O)c1c(-c2ccc(F)cc2)oc2cc(N(CCCOCCOCc3cccc(C(C)=O)c3)S(C)(=O)=O)c(C3CC3)cc12` [Compound 03-6A, 6-(N-(3-(2-((3-acetylbenzyl)-oxy)-ethoxy)-propyl)-methylsulfonamido)-5-cyclopropyl-2-(4-fluorophenyl)-N-methylbenzofuran-3-carboxamide]: above 1000 nM; for `CNC(=O)c1c(-c2ccc(F)cc2)oc2cc(N(CCCOCCOCc3cccc(C(=O)/C=C(\O)C(=O)O)c3)S(C)(=O)=O)c(C3CC3)cc12` [Compound 03-8A, 4-{3-[2-(3-{[5-Cyclopropyl-2-(4-fluoro-phenyl)-3-methylcarbamoyl-benzofuran-6-yl]-methanesulfonyl-amino}-propoxy)-ethoxymethyl]-phenyl}-2-hydroxy-4-oxo-but-2-enoic Acid]: 100 to 1000 nM; for `CNC(=O)c1c(-c2ccc(F)cc2)oc2cc(N(CCOCCOCCOCCN)S(C)(=O)=O)c(C3CC3)cc12` [Compound 04-10, 6-(N-(2-(2-(2-(2-Aminoethoxy)-ethoxy)-ethoxy)-ethyl)-methylsulfonamido)-5-cyclopropyl-2-(4-fluorophenyl)-N-methylbenzofuran-3-carboxamide]: above 1000 nM. Consider `CNC(=O)c1c(-c2ccc(F)cc2)oc2cc(N(CCOCCOCCOCCOC)S(C)(=O)=O)c(C3CC3)cc12` [Compound 05-4A, 6-(N-(2,5,8,11-Tetraoxatridecan-13-yl)-methylsulfonamido)-5-cyclopropyl-2-(4-fluorophenyl)-N-methylbenzofuran-3-carboxamide], for which the IC50 is above 1000 nM.

For the molecule `CCCCOCCOCCOCCN(c1cc2oc(-c3ccc(F)cc3)c(C(=O)NC)c2cc1C1CC1)S(C)(=O)=O` [Compound 05-4B, 6-({2-[2-(2-Butoxy-ethoxy)-ethoxy]-ethyl}-methanesulfonyl-amino)-5-cyclopropyl-2-(4-fluoro-phenyl)-benzofuran-3-carboxylic Acid Methylamide], the IC50 was above 1000 nM. In the case of `CNC(=O)c1c(-c2ccc(F)cc2)oc2cc(N(CCOCCOCc3ccccc3C(=O)OC)S(C)(=O)=O)c(C3CC3)cc12` [Compound 06-6A, 2-[2-(2-{[5-Cyclopropyl-2-(4-fluoro-phenyl)-3-methylcarbamoyl-benzofuran-6-yl]-methanesulfonyl-amino}-ethoxy)-ethoxymethyl]-benzoic Acid Methyl Ester], the IC50 lay within 100 to 1000 nM.
